Test results: PubChem BioAssay AID330 (DTP/NCI, 2004)
Several values for one entry are separate records, joined by “and”; a condition that tells them apart may be missing. Equal values may be shown once. Inconclusive results and toxic doses are left out. Rule for the calls: active = survival T/C of 150% or more; inactive = T/C below 125% in these data.

System: P388 leukemia ip, CD2F1 mice, survival T/C
Assay: NCI In Vivo Anticancer Drug Screen. Data for tumor model P388 Leukemia (intraperitoneal) in CD2F1 (CDF1) mice
Settings: endpoint: median survival time, higher = longer survival
How it was run: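 Mice carrying the transplanted tumor received test compound or vehicle. Survival was recorded in each group, and the value is the treated-group measurement divided by that of the vehicle-treated control group.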

[1] = dose: 25.0 mg/kg/injection, schedule: Q01DX009 (ip), vehicle: saline with Tween-80
[2] = dose: 50.0 mg/kg/injection, schedule: Q01DX009 (ip), vehicle: saline with Tween-80
[3] = dose: 100.0 mg/kg/injection, schedule: Q01DX009 (ip), vehicle: saline with Tween-80
[4] = dose: 50.0 mg/kg/injection, schedule: Q01DX009 (ip), vehicle: saline
[5] = dose: 100.0 mg/kg/injection, schedule: Q01DX009 (ip), vehicle: saline
[6] = dose: 200.0 mg/kg/injection, schedule: Q01DX009 (ip), vehicle: saline
[7] = dose: 50.0 mg/kg/injection, schedule: Q01DX005 (ip), vehicle: saline with Tween-80
[8] = dose: 100.0 mg/kg/injection, schedule: Q01DX005 (ip), vehicle: saline with Tween-80
[9] = dose: 200.0 mg/kg/injection, schedule: Q01DX005 (ip), vehicle: saline with Tween-80
[10] = dose: 50.0 mg/kg/injection, schedule: Q01DX009 (ip), vehicle: Klucel (hydroxypropylcellulose) (HPC)
[11] = dose: 100.0 mg/kg/injection, schedule: Q01DX009 (ip), vehicle: Klucel (hydroxypropylcellulose) (HPC)
[12] = dose: 60.0 mg/kg/injection, schedule: Q01DX005 (ip), vehicle: saline with Tween-80
[13] = dose: 120.0 mg/kg/injection, schedule: Q01DX005 (ip), vehicle: saline with Tween-80
[14] = dose: 240.0 mg/kg/injection, schedule: Q01DX005 (ip), vehicle: saline with Tween-80

Measured: T/C

Cc1ccc(S(=O)(=O)N(CCC(c2ccccc2)c2ccccc2)S(=O)(=O)c2ccc(C)cc2)cc1
inactive: [1] 102 % of control | [2] 98 % of control | [3] 100 % of control

CN(C)c1ccc(C2NC(C(=O)O)CS2)cc1 (configuration not stated)
inactive: dose: 50.0 mg/kg/injection, schedule: Q01DX009 (ip), vehicle: suspension in saline 91 % of control | dose: 100.0 mg/kg/injection, schedule: Q01DX009 (ip), vehicle: suspension in saline 100 % of control | dose: 200.0 mg/kg/injection, schedule: Q01DX009 (ip), vehicle: suspension in saline 100 % of control

N#CC1(NO)CCCC1
inactive: [4] 94 % of control | [5] 98 % of control | [6] 89 % of control

O=Nc1ccc2ccccc2c1O
inactive: dose: 12.5 mg/kg/injection, schedule: Q01DX001 (ip), vehicle: Klucel (hydroxypropylcellulose) (HPC) 103 % of control | dose: 25.0 mg/kg/injection, schedule: Q01DX001 (ip), vehicle: Klucel (hydroxypropylcellulose) (HPC) 108 % of control | dose: 50.0 mg/kg/injection, schedule: Q01DX001 (ip), vehicle: Klucel (hydroxypropylcellulose) (HPC) 111 % of control

CCCCN(CCCC)CC(N=O)c1cc(-c2ccc(Cl)c(Cl)c2)nc2c(Cl)cc(Cl)cc12 (configuration not stated)
inactive: [7] 108 % of control | [8] 111 % of control | [9] 107 % of control

O=c1c2ccccc2c2nc3ccccc3nc2c2ccccc12
inactive: dose: 25.0 mg/kg/injection, schedule: Q01DX005 (ip), vehicle: saline with Tween-80 91 % of control | [7] 97 % of control | [8] 96 % of control

CC(O)CN1C(=O)c2cccc3cc([N+](=O)[O-])cc(c23)C1=O (configuration not stated)
inactive: [7] 96 % of control | [8] 104 % of control | [9] 104 % of control

C[CH2][Ge]([CH3])([CH2]C)[CH2]CCC[CH2][Sn]([CH3])([CH3])[CH3]
inactive: [4] 98 % of control | [5] 99 % of control | [6] 97 % of control

CCOC(=O)CSc1ccccc1
inactive: [4] 100 % of control | [5] 98 % of control | [6] 100 % of control | dose: 400.0 mg/kg/injection, schedule: Q01DX009 (ip), vehicle: saline 100 % of control

CNC(=O)OCc1nc(-c2ccccc2)n(C)c1COC(=O)NC
inactive: dose: 12.5 mg/kg/injection, schedule: Q01DX005 (ip), vehicle: distilled water + Tween-80 98 % of control | dose: 25.0 mg/kg/injection, schedule: Q01DX005 (ip), vehicle: distilled water + Tween-80 107 % of control | dose: 50.0 mg/kg/injection, schedule: Q01DX005 (ip), vehicle: distilled water + Tween-80 112 % of control | dose: 100.0 mg/kg/injection, schedule: Q01DX005 (ip), vehicle: distilled water + Tween-80 116 % of control | dose: 200.0 mg/kg/injection, schedule: Q01DX005 (ip), vehicle: distilled water + Tween-80 119 % of control

CC(C)(C)C1=CC(=CC=C2C=CN(CCO)C=C2)C=C(C(C)(C)C)C1=O
inactive: dose: 7.5 mg/kg/injection, schedule: Q01DX005 (ip), vehicle: saline with Tween-80 105 % of control | dose: 15.0 mg/kg/injection, schedule: Q01DX005 (ip), vehicle: saline with Tween-80 98 % of control | dose: 30.0 mg/kg/injection, schedule: Q01DX005 (ip), vehicle: saline with Tween-80 104 % of control

O=C1Nc2ccccc2/C1=C/c1ccco1
inactive: [10] 99 % of control | [11] 113 % of control | dose: 200.0 mg/kg/injection, schedule: Q01DX009 (ip), vehicle: Klucel (hydroxypropylcellulose) (HPC) 89 % of control

COC1/C=C/OC2(C)Oc3c(C)c(O)c4c(O)c(c(/C=N/N(C)C5OC(COC(=O)c6ccccc6)C(OC(=O)c6ccccc6)C5OC(=O)c5ccccc5)c(O)c4c3C2=O)NC(=O)C(C)=C/C=C/C(C)C(O)C(C)C(O)C(C)C(OC(C)=O)C1C (configuration not stated)
inactive: dose: 12.5 mg/kg/injection, schedule: Q01DX009 (ip), vehicle: saline with Tween-80 104 % of control | [1] 107 % of control | [2] 108 % of control and 112 % of control | [3] 114 % of control | dose: 200.0 mg/kg/injection, schedule: Q01DX009 (ip), vehicle: saline with Tween-80 117 % of control

CN(C)CCCNc1ccc(O)c2sc3ccccc3c(=O)c12
inactive: dose: 3.13 mg/kg/injection, schedule: Q01DX009 (ip), vehicle: saline 101 % of control | dose: 6.25 mg/kg/injection, schedule: Q01DX009 (ip), vehicle: saline 103 % of control | dose: 12.5 mg/kg/injection, schedule: Q01DX009 (ip), vehicle: saline 103 % of control | dose: 25.0 mg/kg/injection, schedule: Q01DX009 (ip), vehicle: saline 100 % of control

Cc1nc(C2(O)C(C3COC(C)(C)O3)OC3OC(C)(C)OC32)no1 (configuration not stated)
inactive: [12] 100 % of control | [13] 100 % of control | [14] 100 % of control

COc1cc(OC)c2c3c1CCC(O)=C3C(=O)OC2
inactive: dose: 4.38 mg/kg/injection, schedule: Q01DX005 (ip), vehicle: Klucel (hydroxypropylcellulose) (HPC) 94 % of control | dose: 8.75 mg/kg/injection, schedule: Q01DX005 (ip), vehicle: Klucel (hydroxypropylcellulose) (HPC) 94 % of control | dose: 17.5 mg/kg/injection, schedule: Q01DX005 (ip), vehicle: Klucel (hydroxypropylcellulose) (HPC) 94 % of control

COc1cc2c(cc1C(C)c1ccc(C)cc1)OCO2 (configuration not stated)
inactive: dose: 50.0 mg/kg/injection, schedule: Q01DX005 (ip), vehicle: Klucel (hydroxypropylcellulose) (HPC) 103 % of control | dose: 100.0 mg/kg/injection, schedule: Q01DX005 (ip), vehicle: Klucel (hydroxypropylcellulose) (HPC) 110 % of control | dose: 200.0 mg/kg/injection, schedule: Q01DX005 (ip), vehicle: Klucel (hydroxypropylcellulose) (HPC) 114 % of control

COC(SC)(SC)c1cc(-c2c(Cl)cccc2Cl)no1
inactive: [12] 101 % of control | [13] 101 % of control | [14] 103 % of control

COc1cc2c(c(OC)c1OC)-c1ccc(OC)c(=O)cc1C(NC(=O)COc1ccccc1)CC2 (configuration not stated)
active: dose: 1.25 mg/kg/injection, schedule: Q01DX009 (ip), vehicle: Klucel (hydroxypropylcellulose) (HPC) 164 % of control and 171 % of control
104 % of control and 207 % of control: dose: 2.5 mg/kg/injection, schedule: Q01DX009 (ip), vehicle: Klucel (hydroxypropylcellulose) (HPC)
inactive: dose: 0.16 mg/kg/injection, schedule: Q01DX009 (ip), vehicle: Klucel (hydroxypropylcellulose) (HPC) 120 % of control

O=C(Cc1nc2cc(Cl)c(Cl)cc2nc1CC(=O)c1ccncc1)c1ccncc1
inactive: [12] 93 % of control | [13] 90 % of control | [14] 90 % of control

COC(=O)c1[c]([Sn]([CH3])([CH3])[CH3])n[n]([Pb]([CH3])([CH3])[CH3])c1C(=O)OC
inactive: dose: 6.25 mg/kg/injection, schedule: Q04DX003 (ip), vehicle: saline 95 % of control | dose: 12.5 mg/kg/injection, schedule: Q04DX003 (ip), vehicle: saline 95 % of control | dose: 25.0 mg/kg/injection, schedule: Q04DX003 (ip), vehicle: saline 95 % of control

CC(C)c1cc2c(c(O)c1O)C13CCCC(C)(C)C1CC2OC3=O (configuration not stated)
inactive: dose: 7.0 mg/kg/injection, schedule: Q01DX005 (ip), vehicle: saline with Tween-80 113 % of control | dose: 14.0 mg/kg/injection, schedule: Q01DX005 (ip), vehicle: saline with Tween-80 111 % of control | dose: 28.0 mg/kg/injection, schedule: Q01DX005 (ip), vehicle: saline with Tween-80 104 % of control

C/C=C(\C)C(=O)OC1CC(OC(=O)/C(C)=C/C)C2(C)C3C(=O)C=C(C)C2C3C1(C)C (configuration not stated)
inactive: dose: 12.5 mg/kg/injection, schedule: Q01DX009 (ip), vehicle: Klucel (hydroxypropylcellulose) (HPC) 90 % of control | dose: 25.0 mg/kg/injection, schedule: Q01DX009 (ip), vehicle: Klucel (hydroxypropylcellulose) (HPC) 96 % of control | [10] 96 % of control | [11] 100 % of control

CC(=O)NC1c2ccccc2CCC1OC(C)=O (configuration not stated)
inactive: [7] 99 % of control | [8] 99 % of control | [9] 99 % of control

COc1ccc(NS(=O)(=O)c2ccc(N=Cc3c4ccccc4nc4cc(Cl)ccc34)cc2)nn1
inactive: [12] 91 % of control | [13] 90 % of control | [14] 87 % of control

Cn1c2cc(O)cc(O)c2c(=O)c2cccc([N+](=O)[O-])c21
inactive: dose: 100.0 mg/kg/injection, schedule: Q01DX001 (ip), vehicle: saline with Tween-80 104 % of control | dose: 200.0 mg/kg/injection, schedule: Q01DX001 (ip), vehicle: saline with Tween-80 103 % of control | dose: 400.0 mg/kg/injection, schedule: Q01DX001 (ip), vehicle: saline with Tween-80 101 % of control

Cc1cc(C#N)c[n+](C)c1
inactive: dose: 60.0 mg/kg/injection, schedule: Q01DX005 (ip), vehicle: saline 108 % of control | dose: 120.0 mg/kg/injection, schedule: Q01DX005 (ip), vehicle: saline 95 % of control
